The record followed here is patent publication US20230390315A1, “COMPOSITIONS AND METHODS FOR TREATING ISCHEMIC CONDITIONS” (The Regents of the University of California, priority 2020, published 2023).

For one assay, the system named is Bip, CHOP and ATF-6. Put plainly: Western blot of UPR responsive proteins in BCECs. In kind it is cell-based, bovine. The note with it: growing cells deprived of growth factor supply. As for the experimental part:
(§1) Cells were allowed to reach ˜80% confluency in 12-well plates. […] At various time points, plates were taken out of the incubator and kept on ice. Cell monolayers were first washed once with ice-cold PBS before lysis with 250 μl of Pierce RIPA buffer (ThermoFisher Scientific, Rockford, IL) or use 50 mM Tris-HCl (pH 7.6), 150 mM NaCl, 10% Glycerol, 1% NP-40 containing protease/Phosphatase inhibitor cocktail (100×) (Cell signaling, #5872). Lysates were collected and mixed with 4×Bolt LDS Sample Buffer (Novex, Carlsbad, CA) in the presence of Halt protease inhibitors and phosphatase inhibitor cocktail (ThermoFisher scientific, #NP0007). The samples were subjected to SDS-PAGE (Bolt 4-12% Bis-Tris Plus, Invitrogen) using Bolt MES SDS running buffer or NuPAGE 3-8% Tris-Acetate gel using Tris-Acetate SDS running buffer (Novex). HUVECs (passage 6-8) were plated in EBM-2 basal medium (Lonza) with 0.2% FBS. […] Equal amounts of protein lysates were analyzed by SDS-PAGE and blotted with the indicated antibodies. Proteins were transferred using Tris-Glycine buffer with 20% Methanol (Proteonomics grade) (Apex BioResearch Products). Membranes were first incubated with 5% milk in TBST, pH 7.6 (TEKnova, Hollister, CA), followed by blotting with primary and secondary antibodies. ECL anti-rabbit IgG, horseradish peroxidase linked whole antibody from donkey or sheep anti-mouse were obtained from GE Healthcare (UK limited). SuperSignal West Dura Extended Duration substrate was from ThermoFisher Scientific. In some cases, the same PVDF membranes were stripped by 8-min incubation in the Restore Plus Western Blot Stripping Buffer (ThermoFisher Scientific) to show total specific protein expression, followed by second stripping for β-actin expression.

The subject of a further assay is skin wound. Put plainly: Skin wound healing model (splinted wound). The note with it: day 4; topical 20 μg daily. In kind it is in vivo, mouse. From the text: The model has been previously described. Briefly, C57BL/6 female mice (8-10 weeks old) were obtained from Jackson labs (Sacramento, CA). A fresh, full-thickness punch wound (4 mm diameter) using a punch (Acu Punch, Acuderm inc. Ft. Lauderdale, FL) splinted with a sterile neoprene ring (6-mm outer diameter and 4-mm inner diameter), fastened with 5-6 sutures (4-0 nylon) under the influence of Isoflurane was created on the back of the animal in a Class II Biological Safety Cabinet. For all surgical procedures, sterile technique was followed. Buprenorphine was given subcutaneously prior to awakening from anesthesia for anticipated pain. Mice were monitored until fully awake and were housed individually to minimize damage/biting/fighting to the surgical site. […] Treatment agents were prepared in PBS, sterile-filtered and 25 μl solution was applied daily directly to a wound bed for the first 4-5 days under the influence of Isoflurane, followed by daily observation. Wound closure was monitored by regular imaging and the wound area was quantified using ImageJ (National Institutes of Health, Bethesda, MD, USA). […] Epithelial gap was measured histomorphometrically using AxioVision LE Rel.4.4 software. […] Small vessels stained positive for CD31 were counted microscopically on 10 fields (20×) taken around the wound.

The next assay has as its system VEGFR2. Put plainly: Western blot of VEGFR2 molecular mass in BCECs and BRECs. Type of assay: cell-based, bovine. The conditions noted are these: BCECs and BRECs. As for the experimental part: Glycerol-free PNGase F was obtained from New England Biolabs (Ipswich, MA). Briefly, BCECs were lysed with NP-40 containing proteinase inhibitors (Thermo Scientific, Waltham, MA). Lysates were cleared at 4° C. at 5000 g for 25 mins. Total protein content was measured using Pierce BCA protein assay kit (ThermoScientific). […] of protein was mixed with 10× denaturing buffer and H2O to a total volume of […]. Glycoproteins were denatured at 100° C. for 10 mins, followed by adding Glycobuffer and PNGase F. The reaction was carried out at 37° C. for 2 hr.
as §1

Assay [1] relates to BCEC confluent monolayers. As to the kind of experiment: BCEC scratch assay. Type of assay: cell-based, bovine. The note with it: 40 uM ManN or 50 ng/ml of VEGF; after 48 hours. How it is done: BCECs (passage 6-10) and HUVEC (passage 6-8) were used in this assay. Cells were grown until about 80% confluency in 6-well plates, washed twice with PBS and then starved in serum-free DMEM (low Glucose, Hyclone) for 5 hrs before making a “scratch” using 1 ml tip. Cell monolayers were briefly washed once with serum-free media, followed by various treatments in media containing 1% FBS. 48 hrs later, the assay was stopped by adding 2 ml 4% paraformaldehyde. 20 min later, fixed cells were stained with 1 ml Crystal Violet (Sigma). Plates were washed gently under the running tap water and air-dried before taking pictures. Images were acquired by ZEISS Discovery […] microscopy equipped with […] camera. Quantification of wound closure was done using AxioVision LE Rel.4.4 software. Six images were taken for each sample and six measurements (in pixel) were made on each image using AxioVision LE Rel.4.4 software.

Assay [2] relates to bovine choroidal microvascular endothelial cells (BCEC). As to the kind of experiment: BCEC proliferation assay. In kind it is cell-based. How it is done:
Proliferation assays with BCECs and BRECs were performed. Log-phase growing BCECs or BRECs (passage <10) were trypsinized, re-suspended and seeded in 96-well plates (no coating) in low-glucose DMEM supplemented with 10% bovine calf serum, 2 mM glutamine, and antibiotics (growth medium), at a density of 1200-1500 cells per well in 200 μl volume. All reagents were added at the indicated final concentrations. […] Fluorescence was measured at 530 nm excitation wavelength and 590 nm emission wavelength. The experiments were repeated at least three times. […] On each 96-well plate, untreated and VEGF-treated (10/ng/ml) wells were included to monitor plate-to-plate variations. 20% methanol or 0.05% DMSO served as negative controls. 0.05% DMSO served as negative controls when Cas was tested in these cells. Human […] and human adult […] were split into Gelatin-coated 96 wells (2000 cells per well) in low glucose DMEM containing 10% FBS. 1200 cells/well was set up for proliferation assay in low glucose media containing FBS. […] HUVEC (p7-10) were grown on gelatin-coated plate until it reached 70-80% confluency. On the day of the assay, cells were dissociated with 0.05% trypsin, which was neutralized with 0.5% FBS-containing EBM. Cells were briefly spun and then re-suspended in 0.5% FBS-media. Cells were counted and plated in 96-well, 1000 cells/well. Triplicate wells were used for each treatment. Data were collected at day 3, and then cells were fixed in 4% paraformaldehyde for 15 min before adding crystal violet. Cell-covered areas were quantified after taking pictures by Image J software.

Regarding VEGF, in the assay on Bip, CHOP and ATF-6, the Bip expression entry was “not”. Also, the “average closure of the wound” value with skin wound came to 66.9%. Further, in the assay on VEGFR2, the “effect on apparent molecular mass of VEGFR2” value is “no effect”. Also, the “closure of the scratched area compared to control” value in assay [1] is recorded as “significantly accelerated”. For the same substance, the “fold increase in cell proliferation” value in assay [2] (5 ng/ml VEGF) is reported as 4-5 fold. For the same substance, the “dependence of VEGF activity on glycolysis” value in assay [2] (glucose-free media) was “not dependent on the glycolysis pathway”.
